{"source": "patent US10422788B2", "about": "“Profiling peptides and methods for sensitivity profiling” (Tolero Pharmaceuticals, Inc., priority 2016, dated 2019)", "key": {"[1]": {"tested_on": "MOLM-13 and OCI-AML3 cells", "assay": "Whole cell assay, JC-1 mitochondrial potential, permeabilized and non-permeabilized cells", "assay_type": "cell-based", "settings": "100 μM, normalized mitochondrial potential", "experimental": "(§1) Briefly, frozen MOLM-13 and OCI-AML3 cell stocks were rapidly thawed, and cell viability was determined by Trypan Blue exclusion. Cells were washed in PBS and resuspended in DTEB (or MEB) buffer (135 mM Trehalose [or 150 mM Mannitol], 10 mM HEPES, 50 mM KCl, 20 μMI EGTA, 20 μM EDTA, 0.1% BSA, and 5 mM succinate). The profiling peptides and NOXA ([…]; SEQ ID NO:16) were reconstituted in water to make working solutions allowing for final concentrations of: SEQ ID NO:1 (100 μM), SEQ ID NO:14 (100 μM), SEQ ID NO:15 (100 μM), and NOXA (100 μM). […] Profiling peptides, controls, or NOXA (for comparison purposes) were first added to a microplate. Cells (4×10^5) resuspended in DTEB or MEB buffers were then added to a staining solution ([…], 40 μM JC-1, 1 M 2-mercaptoethanol, DTEB or MEB buffer), before being added to the wells of the microplate in the above (for non-digitonin-treated samples, digitonin was not added to the staining solution above). The mixture was then incubated for up to 2 hours at 30° C., in order for cell permeabilization (if needed), delivery of peptides or compounds, and mitochondrial depolarization to occur. Fluorescence signal of each well was assessed using an Envision multilabel plate reader at Ex475/Em530 and Ex530/Em595. […]"}, "[2]": {"tested_on": "MOLM-13 cells", "assay": "Whole cell assay, JC-1 mitochondrial potential, cells lacking digitonin (FIG. 1B)", "assay_type": "cell-based", "settings": "100 μM peptide, no digitonin", "experimental": "as §1"}, "[3]": {"tested_on": "MOLM-13", "assay": "SEQ ID NO: 14 assay (Example 5, DiOC6 flow cytometry)", "assay_type": "cell-based", "settings": "non-permeabilized, DiOC6 MFI vs CCCP and water"}, "[4]": {"tested_on": "OCI-AML3", "assay": "SEQ ID NO: 14 assay (Example 5, DiOC6 flow cytometry)", "assay_type": "cell-based", "settings": "non-permeabilized, DiOC6 MFI vs CCCP and water"}, "[5]": {"tested_on": "THP-1", "assay": "SEQ ID NO: 14 assay (Example 5, DiOC6 flow cytometry)", "assay_type": "cell-based", "settings": "non-permeabilized, DiOC6 MFI vs CCCP and water"}, "[6]": {"tested_on": "HL-60", "assay": "SEQ ID NO: 14 assay (Example 5, DiOC6 flow cytometry)", "assay_type": "cell-based", "settings": "non-permeabilized, DiOC6 MFI vs CCCP and water"}, "[7]": {"tested_on": "U-937", "assay": "SEQ ID NO: 14 assay (Example 5, DiOC6 flow cytometry)", "assay_type": "cell-based", "settings": "non-permeabilized, DiOC6 MFI vs CCCP and water"}, "[8]": {"tested_on": "KG-1", "assay": "SEQ ID NO: 14 assay (Example 5, DiOC6 flow cytometry)", "assay_type": "cell-based", "settings": "non-permeabilized, DiOC6 MFI vs CCCP and water"}, "[9]": {"tested_on": "MV4-11", "assay": "SEQ ID NO: 14 assay (Example 5, DiOC6 flow cytometry)", "assay_type": "cell-based", "settings": "non-permeabilized, DiOC6 MFI vs CCCP and water", "experimental": "(§2) Leukocytes are isolated from primary bone marrow aspirates using ficoll preparation. Leukocytes may be fresh or frozen. If frozen, the sample is thawed prior to testing. Incubate the sample in RPMI with DNase 1 in 37° C. incubator for 60 minutes. Cells are then pelleted, blocked in PBS with 1% BSA for 15 minutes on ice, followed by staining for 30 minutes on ice in the dark. After staining, cells are pelleted and resuspended in DTEB with Ryanodine (30 nM) and Oligomycin. After incubating in a 37° C. incubator for 30 minutes, the sample is separated into fluorescent-activated cell sorting (FACS) tubes and treated with either water (negative control), CCCP (positive control) or SEQ ID NO:14 (subject dependency) and incubated in a 37° incubator for 60 minutes. DiOC6, a cationic mitochondrial dye is then added and incubated for 60 minutes in a 37° C. incubator. The cells are then analyzed via flow cytometry. Blast cells are isolated by gating on the CD45 dim, CD13, CD33 and CD34 high population of each sample. (See FIG. 3). Where indicated, cells may be further gated using CD3 and CD20. Dependency values are calculated using the median fluorescent intensity (MFI) of DiOC6 in each sample according to the following equation: […]\nNOXA assay results were compared to the results of the assay described in Example 5."}, "[10]": {"tested_on": "subject samples (AML blast cells)", "assay": "SEQ ID NO: 14 assay (Example 5) on subject samples", "assay_type": "cell-based, human", "experimental": "as §2"}, "[11]": {"settings": "Sample # 17, subject treated with FLAM, complete response"}, "[12]": {"settings": "Sample # 18, subject treated with FLAM, complete response"}, "[13]": {"settings": "Sample # 19, subject treated with FLAM, complete response"}}, "data": [{"sequence": "YGRKKRRQRRRGGGRPEIWMTQGLRRLGDEINAYYAR (profiling peptide sequence) [SEQ ID NO:14]", "values": [{"measurement": "activity in the absence of digitonin compared to Mcl-1 binding domain alone or SEQ ID NO:15", "setting": "[1]", "result": "superior activity"}, {"measurement": "activity compared to the positive control (FCCP)", "setting": "[2]", "result": "exceeded the activity of the positive control"}, {"measurement": "SEQ ID NO: 14 Dependency %", "setting": "[3]", "result": 20.78, "unit": "%"}, {"measurement": "SEQ ID NO: 14 Dependency %", "setting": "[4]", "result": 19.40, "unit": "%"}, {"measurement": "SEQ ID NO: 14 Dependency %", "setting": "[5]", "result": 11.70, "unit": "%"}, {"measurement": "SEQ ID NO: 14 Dependency %", "setting": "[6]", "result": 24.5, "unit": "%"}, {"measurement": "SEQ ID NO: 14 Dependency %", "setting": "[7]", "result": 10.1, "unit": "%"}, {"measurement": "SEQ ID NO: 14 Dependency %", "setting": "[8]", "result": 0.0, "unit": "%"}, {"measurement": "SEQ ID NO: 14 Dependency %", "setting": "[9]", "result": 5.0, "unit": "%"}, {"measurement": "SEQ ID NO: 14 Dependency %", "setting": "[10]; Sample # 1", "result": 18.0, "unit": "%"}, {"measurement": "SEQ ID NO: 14 Result (Pos/Neg)", "setting": "[10]; Sample # 1", "result": "Neg (Concordance based on cutoff of ≥40% MCL-1 Dependency for both methods.)"}, {"measurement": "SEQ ID NO: 14 Dependency %", "setting": "[10]; Sample # 2", "result": 44.9, "unit": "%"}, {"measurement": "SEQ ID NO: 14 Result (Pos/Neg)", "setting": "[10]; Sample # 2", "result": "Pos (Concordance based on cutoff of ≥40% MCL-1 Dependency for both methods.)"}, {"measurement": "SEQ ID NO: 14 Dependency %", "setting": "[10]; Sample # 3", "result": 53.8, "unit": "%"}, {"measurement": "SEQ ID NO: 14 Result (Pos/Neg)", "setting": "[10]; Sample # 3", "result": "Pos (Concordance based on cutoff of ≥40% MCL-1 Dependency for both methods.)"}, {"measurement": "SEQ ID NO: 14 Dependency %", "setting": "[10]; Sample # 4", "result": 26.7, "unit": "%"}, {"measurement": "SEQ ID NO: 14 Result (Pos/Neg)", "setting": "[10]; Sample # 4", "result": "Neg (Concordance based on cutoff of ≥40% MCL-1 Dependency for both methods.)"}, {"measurement": "SEQ ID NO: 14 Dependency %", "setting": "[10]; Sample # 5", "result": 70.8, "unit": "%"}, {"measurement": "SEQ ID NO: 14 Result (Pos/Neg)", "setting": "[10]; Sample # 5", "result": "Pos (Concordance based on cutoff of ≥40% MCL-1 Dependency for both methods.)"}, {"measurement": "SEQ ID NO: 14 Dependency %", "setting": "[10]; Sample # 6", "result": 44.3, "unit": "%"}, {"measurement": "SEQ ID NO: 14 Result (Pos/Neg)", "setting": "[10]; Sample # 6", "result": "Pos (Concordance based on cutoff of ≥40% MCL-1 Dependency for both methods.)"}, {"measurement": "SEQ ID NO: 14 Dependency %", "setting": "[10]; Sample # 7", "result": 48.1, "unit": "%"}, {"measurement": "SEQ ID NO: 14 Result (Pos/Neg)", "setting": "[10]; Sample # 7", "result": "Pos (Concordance based on cutoff of ≥40% MCL-1 Dependency for both methods.)"}, {"measurement": "SEQ ID NO: 14 Dependency %", "setting": "[10]; Sample # 8", "result": 17.0, "unit": "%"}, {"measurement": "SEQ ID NO: 14 Result (Pos/Neg)", "setting": "[10]; Sample # 8", "result": "Neg (Concordance based on cutoff of ≥40% MCL-1 Dependency for both methods.)"}, {"measurement": "SEQ ID NO: 14 Dependency %", "setting": "[10]; Sample # 9", "result": 71.8, "unit": "%"}, {"measurement": "SEQ ID NO: 14 Result (Pos/Neg)", "setting": "[10]; Sample # 9", "result": "Pos (Concordance based on cutoff of ≥40% MCL-1 Dependency for both methods.)"}, {"measurement": "SEQ ID NO: 14 Dependency %", "setting": "[10]; Sample # 10", "result": 0.0, "unit": "%"}, {"measurement": "SEQ ID NO: 14 Result (Pos/Neg)", "setting": "[10]; Sample # 10", "result": "Neg (Concordance based on cutoff of ≥40% MCL-1 Dependency for both methods.)"}, {"measurement": "SEQ ID NO: 14 Dependency %", "setting": "[10]; Sample # 11", "result": 40.6, "unit": "%"}, {"measurement": "SEQ ID NO: 14 Result (Pos/Neg)", "setting": "[10]; Sample # 11", "result": "Pos (Concordance based on cutoff of ≥40% MCL-1 Dependency for both methods.)"}, {"measurement": "SEQ ID NO: 14 Dependency %", "setting": "[10]; Sample # 12", "result": 38.3, "unit": "%"}, {"measurement": "SEQ ID NO: 14 Result (Pos/Neg)", "setting": "[10]; Sample # 12", "result": "Neg (Concordance based on cutoff of ≥40% MCL-1 Dependency for both methods.)"}, {"measurement": "SEQ ID NO: 14 Dependency %", "setting": "[10]; Sample # 13", "result": 35.2, "unit": "%"}, {"measurement": "SEQ ID NO: 14 Result (Pos/Neg)", "setting": "[10]; Sample # 13", "result": "Neg (Concordance based on cutoff of ≥40% MCL-1 Dependency for both methods.)"}, {"measurement": "SEQ ID NO: 14 Dependency %", "setting": "[10]; Sample # 14", "result": 2.6, "unit": "%"}, {"measurement": "SEQ ID NO: 14 Result (Pos/Neg)", "setting": "[10]; Sample # 14", "result": "Neg (Concordance based on cutoff of ≥40% MCL-1 Dependency for both methods.)"}, {"measurement": "SEQ ID NO: 14 Dependency %", "setting": "[10]; Sample # 15", "result": 0.0, "unit": "%"}, {"measurement": "SEQ ID NO: 14 Result (Pos/Neg)", "setting": "[10]; Sample # 15", "result": "Neg (Concordance based on cutoff of ≥40% MCL-1 Dependency for both methods.)"}, {"measurement": "SEQ ID NO: 14 Dependency %", "setting": "[10]; Sample # 16", "result": 0.1, "unit": "%"}, {"measurement": "SEQ ID NO: 14 Result (Pos/Neg)", "setting": "[10]; Sample # 16", "result": "Neg (Concordance based on cutoff of ≥40% MCL-1 Dependency for both methods.)"}, {"measurement": "SEQ ID NO: 14 Dependency %", "setting": "[10]; [11]", "result": 62.4, "unit": "%"}, {"measurement": "SEQ ID NO: 14 Result (Pos/Neg)", "setting": "[10]; [11]", "result": "Pos (Concordance based on cutoff of ≥40% MCL-1 Dependency for both methods.)"}, {"measurement": "SEQ ID NO: 14 Dependency %", "setting": "[10]; [12]", "result": 55.0, "unit": "%"}, {"measurement": "SEQ ID NO: 14 Result (Pos/Neg)", "setting": "[10]; [12]", "result": "Pos (Concordance based on cutoff of ≥40% MCL-1 Dependency for both methods.)"}, {"measurement": "SEQ ID NO: 14 Dependency %", "setting": "[10]; [13]", "result": 27.8, "unit": "%"}, {"measurement": "SEQ ID NO: 14 Result (Pos/Neg)", "setting": "[10]; [13]", "result": "Neg (Concordance based on cutoff of ≥40% MCL-1 Dependency for both methods.)"}]}]}
